One data set deals with NLRP3 inflammasome. The data set is described as follows: cytokines released into the culture medium after LPS+ATP activation (ELISA). Format: cell-based. The note with it: for IL-1β cytokine release: in vitro treatment, Figure 9; for IC50: estimated inhibitory capacity. How it is done: (§1) For biological assays, the THP-1 cell line (monocytes) was used and differentiated into macrophages using phorbol-12-myristate-13-acetate (PMA). They were then stimulated with 200 ng/mL ultrapure LPS for 4 hours, minus the negative control condition, to activate NLRP3 expression. At the same time, the necessary volume of the starting stock of each compound to be tested was added to reach the test concentration. After 4 h incubation at 37 °C, 5 mM ATP was added […] and incubated for 30 min to activate NLRP3 assembly. For NLRP1 activation, Valboropro, a specific inducer of this protein was used at 1µM for 24 hours. Protein expression levels were studied by western blot as a proteomic study and inflammation levels by determination of cytokines released into the medium by immunoassay techniques (ELISA).

The target of another data set is T1, NLRP1 (Homo sapiens, UniProt Q9C000).
T1 construct: the THP-1 cell line (monocytes) was used and differentiated into macrophages; endogenous in cells; host or cells: THP-1 monocytes differentiated into macrophages with PMA
T1 sequence (Q9C000 1-1473): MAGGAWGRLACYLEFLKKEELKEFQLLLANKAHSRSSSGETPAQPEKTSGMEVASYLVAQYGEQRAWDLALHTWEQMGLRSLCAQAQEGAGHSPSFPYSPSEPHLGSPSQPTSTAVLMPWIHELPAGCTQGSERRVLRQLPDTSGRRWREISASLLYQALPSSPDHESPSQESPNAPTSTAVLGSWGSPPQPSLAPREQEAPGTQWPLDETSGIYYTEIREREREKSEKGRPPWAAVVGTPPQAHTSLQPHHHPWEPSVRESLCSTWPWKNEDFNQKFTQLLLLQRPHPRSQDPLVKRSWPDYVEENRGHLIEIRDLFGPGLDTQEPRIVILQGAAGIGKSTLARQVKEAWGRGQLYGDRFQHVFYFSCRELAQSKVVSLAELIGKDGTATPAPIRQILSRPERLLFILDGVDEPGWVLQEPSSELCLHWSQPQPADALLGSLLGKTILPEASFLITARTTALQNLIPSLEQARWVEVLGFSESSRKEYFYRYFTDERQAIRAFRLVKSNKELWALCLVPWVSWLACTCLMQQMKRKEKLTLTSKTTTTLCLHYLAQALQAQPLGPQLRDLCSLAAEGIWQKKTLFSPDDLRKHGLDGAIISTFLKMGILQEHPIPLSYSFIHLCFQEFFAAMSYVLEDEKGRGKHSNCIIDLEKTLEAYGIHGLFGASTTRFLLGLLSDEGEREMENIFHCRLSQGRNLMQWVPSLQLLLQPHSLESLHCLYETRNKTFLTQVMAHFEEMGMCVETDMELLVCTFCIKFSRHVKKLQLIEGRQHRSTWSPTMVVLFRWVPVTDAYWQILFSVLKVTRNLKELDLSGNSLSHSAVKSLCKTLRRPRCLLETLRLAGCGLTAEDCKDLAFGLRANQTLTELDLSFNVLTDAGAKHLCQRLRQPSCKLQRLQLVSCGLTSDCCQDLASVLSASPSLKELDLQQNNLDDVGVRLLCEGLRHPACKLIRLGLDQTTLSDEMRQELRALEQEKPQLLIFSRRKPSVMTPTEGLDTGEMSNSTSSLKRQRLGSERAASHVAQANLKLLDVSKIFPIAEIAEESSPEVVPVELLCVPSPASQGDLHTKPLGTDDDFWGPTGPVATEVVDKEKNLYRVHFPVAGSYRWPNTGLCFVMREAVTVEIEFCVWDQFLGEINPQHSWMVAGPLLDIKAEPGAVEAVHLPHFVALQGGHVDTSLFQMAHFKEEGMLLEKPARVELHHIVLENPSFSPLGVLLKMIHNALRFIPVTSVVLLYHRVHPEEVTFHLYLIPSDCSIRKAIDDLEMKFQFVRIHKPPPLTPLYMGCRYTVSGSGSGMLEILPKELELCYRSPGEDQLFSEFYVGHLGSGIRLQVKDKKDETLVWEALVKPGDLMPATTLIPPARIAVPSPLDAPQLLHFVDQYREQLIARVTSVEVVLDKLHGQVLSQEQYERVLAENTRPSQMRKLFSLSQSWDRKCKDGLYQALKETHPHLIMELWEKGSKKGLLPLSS
The data set is described as follows: in vitro model of NLRP1 induction (ValboroPro) in THP-1 macrophages, protein expression by western blot. It is filed as cell-based. As to conditions: ValboroPro (Vbp) induction; dose-dependent; Figure 3. The method, then: as §1
(§2) The inventors of the present invention evaluated the inhibitory effects of compound C3 in an in vitro model of NLRP3 induction (LPS + ATP), and in an […] model of NLRP1 induction (ValboroPro or Vbp).

A further data set has as its target T2, NEK7 to NLRP3 (Homo sapiens, UniProt Q96P20).
T2 construct: For biological assays, the THP-1 cell line (monocytes) was used; endogenous in cells
Nature of the data set: NEK7 co-immunoprecipitation. It is filed as binding. The note with it: Figure 7. The source says:
One of the possible mechanisms for NLRP3 inhibition is the inhibition of its binding to NEK7, since it has been shown that NEK7 interacts with NLRP3 to modulate NLRP3 inflammasome activation.

Data set [1] relates to AIM-2, NLRP2, NLRC3 or NLRC4. Nature of the data set: expression of other inflammasome proteins (western blot, Figure 5). Format: cell-based. How it is done: as §1
This is reflected by the increased ability of C3 to inhibit the expression of NLRP1, NLRP3, IL-1β and IL-18 compared to MCC950 and C5 (Figure 5 and Figure 8).

Another data set deals with THP-1 cell line. The data set is described as follows: in vitro toxicity (cell viability). Format: cell-based. The note with it: regardless of the dose tested; Figure 6.
A short description of data set [2]: ovarian ageing mouse model. Format: in vivo, mice. The source says:
(§3) For a better characterization of the effect of C3, the inventors determined its effect in two in vivo models: ageing mice (to evaluate the effect in age-related metabolic dysfunction), and ovarian aging mice (to evaluate the effect in infertility because of ovarian aging).
The second model used to evaluate the effect of C3 was related to ovarian aging. The reason behind this is that NLRP1 and NLRP3 is over-expressed during ovarian ageing (Figure 15).
For this, the inventors used 9-month-old adult mice to which C3 was administered for one month.

Data set [3] is described as follows: ageing mouse model (age-related metabolic dysfunction). It is filed as in vivo, C57BL/6J mice. How it is done: as §3
18-month-old C57BL/6J mice were treated with C3 (10 mg/Kg/day i.p.) or with a vehicle solution (saline) for over 4 weeks.

In a further data set the target is T3, NLRP3 (Homo sapiens, UniProt Q96P20).
T3 construct: the THP-1 cell line (monocytes) was used and differentiated into macrophages; endogenous in cells; host or cells: THP-1 monocytes differentiated into macrophages with PMA
The data set is described as follows: in vitro model of NLRP3 induction (LPS + ATP) in PMA-differentiated THP-1 macrophages, protein expression by western blot. Format: cell-based. The method, then:
as §1, §2

Where [4] appears, read: 9-month-old mice, administered for one month, Figure 13.
The mark [5] stands for this setting: histological staining, vs vehicle, Figure 14.
[6] abbreviates: 18-month-old mice, 10 mg/Kg/day i.p., over 4 weeks, vs vehicle, Figure 10.
[7] abbreviates: ageing mice, 10 mg/Kg/day i.p., Figure 12.
The mark [8] stands for this setting: microscopic liver sections, Figure 12.
The mark [9] stands for this setting: old mice, 10 mg/Kg/day i.p., Figure 11.

Structures are written as SMILES. Where two headings read alike, the source gives them in different places.

T3 sequence (Q96P20 whole entry): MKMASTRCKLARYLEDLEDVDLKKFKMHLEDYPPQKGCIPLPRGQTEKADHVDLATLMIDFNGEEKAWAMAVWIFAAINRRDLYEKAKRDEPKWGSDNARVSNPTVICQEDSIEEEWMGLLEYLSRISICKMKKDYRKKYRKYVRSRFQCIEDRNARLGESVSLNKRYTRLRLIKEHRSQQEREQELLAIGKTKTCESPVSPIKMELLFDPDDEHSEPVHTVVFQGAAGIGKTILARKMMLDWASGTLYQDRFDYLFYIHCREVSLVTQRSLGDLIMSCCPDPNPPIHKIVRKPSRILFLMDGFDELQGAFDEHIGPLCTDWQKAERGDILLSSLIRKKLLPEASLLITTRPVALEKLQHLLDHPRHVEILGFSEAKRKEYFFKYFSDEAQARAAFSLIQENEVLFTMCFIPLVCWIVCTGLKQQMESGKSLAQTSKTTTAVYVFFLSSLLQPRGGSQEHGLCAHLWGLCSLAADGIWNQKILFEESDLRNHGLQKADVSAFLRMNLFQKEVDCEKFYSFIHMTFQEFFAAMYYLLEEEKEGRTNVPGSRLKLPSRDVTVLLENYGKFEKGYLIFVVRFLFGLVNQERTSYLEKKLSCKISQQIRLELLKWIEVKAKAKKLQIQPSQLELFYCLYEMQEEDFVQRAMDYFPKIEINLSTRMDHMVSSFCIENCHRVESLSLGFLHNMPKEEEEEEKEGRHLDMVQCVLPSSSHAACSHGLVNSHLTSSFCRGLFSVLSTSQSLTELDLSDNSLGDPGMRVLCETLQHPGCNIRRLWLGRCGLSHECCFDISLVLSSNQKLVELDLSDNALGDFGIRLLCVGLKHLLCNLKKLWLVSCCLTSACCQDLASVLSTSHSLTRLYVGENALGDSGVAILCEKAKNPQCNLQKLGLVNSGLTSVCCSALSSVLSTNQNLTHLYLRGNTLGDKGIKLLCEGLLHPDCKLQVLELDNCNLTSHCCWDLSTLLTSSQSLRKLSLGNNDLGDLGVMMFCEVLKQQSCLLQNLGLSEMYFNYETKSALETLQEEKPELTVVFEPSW
T2 sequence (Q96P20 whole entry): as above

On to `COc1ccc(CNS(C)(=O)=O)cc1` [Compound C1, N-(4-methoxybenzyl) methanesulfonamide], for which the IL-1β cytokine release entry in the data set with NLRP3 inflammasome is on record as “reduction”.

As to `CS(=O)(=O)NCc1ccc2c(c1)OCO2` [Compound C2, N-(4,5-methylenedioxybenzyl) methanesulfonamide], the IL-1β cytokine release entry in the data set with NLRP3 inflammasome is recorded as “reduction”.

Take `CS(=O)(=O)NCc1cccc2ccccc12` [Compound C3, N-(naphthalen-1-ylmethyl) methanesulfonamide]: the “expression of NLRP1” value at NLRP1 is recorded as “inhibited the expression”. Further, the IC50 in the data set on NLRP3 inflammasome (Figure 4A, read-out: IC50 (IL-1β) release into the culture medium) was 0.00538 µM. Moreover, the IC50 with NLRP3 inflammasome (Figure 4B, read-out: IC50 (IL-18) release into the culture medium) was 4.45 µM. Moreover, the “binding of NEK7 to NLRP3” value at NEK7 to NLRP3 is recorded as “inhibited the binding”. Also, the “modulation of other inflammasome proteins such as AIM-2, NLRP2, NLRC3 or NLRC4” value in data set [1] was “did not result in the modulation”. Further, in the data set on THP-1 cell line, the cell viability result is listed as “above 85%”. Besides, in data set [2] (setting [4]), the AMH receptor entry is listed as “increase”, the “Follicle-stimulating hormone (FSH)” value is given as “reduction”, the “antimüllerian hormone (AMH)” value is “significant increase” and the “protein levels of active Caspase 1” value is given as “decreased”. The “protein levels of active IL-1β” value in data set [2] (setting [4]) is “decreased”. Also, in data set [2] (compared to NLRP1 KO and NLRP3 KO mice, Figure 15), the “improvement of the ovarian reserve by AMH hormone” value is given as “significantly higher improvement”. Besides, in data set [2] (setting [5]), the “percentage of atretic follicles” value is “lower percentage” and the percentage of follicles entry is on record as “higher percentage”. In data set [3] (setting [6]), the abdominal fat entry is on record as “significantly reduced” and the body weight result is recorded as “significantly reduced”. In data set [3] (setting [7]), the NLRP1 protein expression result is recorded as “significant reduction”, the NLRP3 protein expression result is “significant reduction” and the “serum IL1β levels” value is “significant reduction”. In data set [3] (setting [8]), the age-associated hepatic fibrosis result is recorded as “significantly reduced” and the age-associated hepatic steatosis entry is reported as “significantly reduced”. In data set [3] (old mice, 10 mg/Kg/day i.p., vs control, Figure 11), the “glucose levels upon glucose challenges at the OGTT peak (>15 min)” value was “significantly decreased”. For the same compound, in data set [3] (setting [9]), the serum leptin/adiponectin entry is “reduced”, the “serum levels of adiponectin” value is given as “reduced” and the “serum levels of leptin” value is on record as “reduced”. Moreover, at NLRP3 (LPS + ATP induction, dose-dependent, Figure 3), the “expression of NLRP3” value is given as “inhibited the expression”. The “expression of the inflammasome activation-associated protein IL-1β” value at NLRP3 (LPS+ATP or VbP induction, dose-dependent, Figure 3) is given as “reduced the expression”. The “inhibitory capacity (expression of NLRP1, NLRP3, IL-1β and IL-18)” value on NLRP3 (compared to MCC950 and C5, Figure 5 and Figure 8) is “increased inhibitory capacity”.

Consider `CS(=O)(=O)NCc1ccc(Cl)cc1` [Compound C4, N-(4-chlorobenzyl) methanesulfonamide], for which, in the data set with NLRP3 inflammasome, the IL-1β cytokine release entry was “reduction”.

Turning to `O=S(=O)(Cc1ccc2ccccc2c1)NCc1ccccc1` [Compound C7, N-benzyl-1-(naphthalen-2-yl) methanesulfonamide], the IL-1β cytokine release entry with NLRP3 inflammasome was “reduction”.

Broadly, the IC50 is the midpoint of a concentration-inhibition curve.

These data come from patent EP4559461A1, “DUAL NLRP1 AND NLRP3 INHIBITORS FOR USE AS A MEDICAMENT” (Servicio Andaluz de Salud, priority 2023, dated 2025).
